Assay results as given in patent EP0574808A1, “Amidine-biphenyl derivatives, process for their production & medical preparation containing them” (Dr. Karl Thomae GmbH, priority 1992, dated 1993).

System: Collagen-induzierte Thrombozytenaggregation
Test: Ex vivo inhibition of collagen-induced platelet aggregation after oral administration (Born and Cross photometric method)
Settings: oral 3 mg/kg, suspended in Natrosol; Rhesusaffen; Collagen 2 µg/ml in platelet-rich plasma
Source text: Beispielsweise wurden die Verbindungen der allgemeinen Formel I auf ihre biologischen Wirkungen wie folgt untersucht: Die Hemmung der Thrombozytenaggregation nach oraler Gabe der Prüfsubstanz wird ex vivo an Rhesusaffen ermittelt.
Direkt vor der oralen Verabreichung der in Natrosol suspendierten Prüfsubstanz wird den Tieren eine Blutprobe aus der Kubitalvene als Referenzwert entnommen. Zu definierten Zeiten nach der Substanzgabe werden erneut Blutproben gewonnen und wie folgt untersucht.
Das mit 3,14% Natriumcitrat im Volumenverhältnis 1:10 versetzte Vollblut wird mit 200 g für 15 Minuten zentrifugiert. Der Überstand an plättchenreichem Plasma wird vorsichtig abgehoben. Aus dem erythrozytenreichen Sediment wird durch Zentrifugation mit 4000 g für 10 Minuten das plättchenarme Plasma als Überstand gewonnen.
Die mit Collagen (Hormonchemie, München; 2 µg/ml Endkonzentration im plättchenreichen Plasma) ausgelöste Thrombozytenaggregation in diesen ex vivo Proben wird nach der Methode von Born und Cross (J. Physiol. 170, 397 (1964)) photometrisch gemessen. Die nach Collagenstimulation gemessene größte Lichtdurchlässigkeit des plättchenreichen Plasmas wird mit dem Referenzwert verglichen, um die Hemmung der Aggregation zu den verschiedenen Zeitpunkten der Blutentnahme nach Substanzgabe relativ zum Referenzwert zu bestimmen.

Cl.N=C(N)c1ccc(-c2ccc(C(=O)N3CCC(CC(=O)OC4CCCCC4)CC3)cc2)cc1 [Beispiel 1, 4-Amidino-4'-[4-(cyclohexyloxycarbonylmethyl)-piperidinocarbonyl]-biphenyl-hydrochlorid]
Dauer der Hemmung der Collagen-induzierten Thrombozytenaggregation ex vivo: > 4 Stunden
